In data set [1] the test system is prostate cancer cell line (LNCaP). The experiment in a line: MTT cytotoxicity comparison of peptides at the same concentration (FIG. 6). It counts as cell-based, human. The following applies: 300 μM, 48 h, 1% FBS, among GV1001, GnRH, HS1001, HS1002. The method, then: The prostate cancer cell line (LNCaP), in which the reactivity of HS1002 to hTERT had been best, were used to investigate the cytotoxic effects of GV1001, GnRH, HS1001, and HS1002 under conditions of 1,500 cells/well, 1% FBS, and 48-hour treatment. The prostate cancer cells were seeded at 1.5×10^3 cells per well in a 96-well plate, and then incubated in an incubator for one day. Thereafter, the cells were treated with HS1001, HS1002, GV1001, and GnRH diluted to (300, 200, 100, and 50 μM) in fresh media. After 48-h incubation, an MTT reagent (3-(4,5-dimethylthiazol-2-yl)-2,5-diphenyltetrazolium bromide, Sigma-Aldrich, M6494) was added, and subsequently the plate was shielded from light and kept in an incubator for 3 h. Thereafter, the MTT solution was discarded, and 100 μL of dimethyl sulfoxide (DMSO, 99.9%, HPLC grade, DAEJUNG CHEMICALS & METALS, 3047-2304) was added to each well, and subsequently the plate was shielded from light and then left at room temperature for 20 min. After that, the absorbance was measured at 540 nm using a microplate reader.

The subject of data set [2] is BAX, C-PARP, Bcl-2 in LNCaP. The experiment in a line: Western blot of proteins involved in apoptosis (FIG. 9). It counts as cell-based, human. The following applies: different concentrations, 48 h. The method, then: The prostate cancer cell line (LNCaP) was seeded into six-well plates and then incubated in an incubator for one day. The peptides were diluted in fresh media and then used to treat the cells. After 48 h, the media were removed, the plates were washed twice with DPBS, and 1 mL of trypsin was placed in each well to separate the cells, and 5 mL of media were added to each well to dilute the trypsin, followed by centrifugation at 1000 rpm for 5 min, thereby preparing the cells. Thereafter, proteins were extracted using a Pro-prep protein extraction kit, separated by electrophoresis, and blotted onto a membrane. The membrane was blocked by a Blotting-Grade Blocker at room temperature for 1 hour, and then primary antibodies (1000:1) were added, followed by incubation at 4° C. for one day. Thereafter, the membrane was repeatedly washed with 1×TBST (Tris 25 g, NaCl 120 g in D.W.+[…] 0.1%) every 10 min for 1 h. Then, secondary antibodies (10000:1) were added, followed by incubation at room temperature for 1 h, and then the membrane was repeatedly washed with 1×TBST every 10 min for 1 h. After incubation with […] substrates for 5 min, desired protein bands were identified using a Chemi-doc system.

The test system of the next data set is telomerase. Put plainly: Telomerase activity quantification qPCR in treated LNCaP cells (FIG. 10, 11). It counts as cell-based, human. The settings on record: FIG. 11. The method, then: After treatment with GV1001, HS1001, HS1002, and GnRH, the changes in hTERT mRNA and protein expression level were investigated for each peptide. The drug treatment was performed every 24 h considering the stability of peptides in aqueous solutions. To investigate the telomerase activity reducing effect of the peptides, prostate cancer cell lines (LNCaP) were treated with each drug at 300 μM every 24 h for a total of 72 h and then measured for telomerase activity through qPCR. The proteins in a cell lysate were quantified to obtain a telomerase product extended by the same amount of proteins, and qPCR was performed using the telomerase as a template.
In the treatment with the peptides, the change in telomerase activity was investigated. The cells were cultured in 100-mm plates each, and about 24 h later, the cells were treated with the peptides synthesized in Example 3 at a concentration of 300 μM before incubation. The cells were cultured in a 37° C., 5% CO2 incubator using 1% FBS RPMI media. The cells were harvested 72 h after the peptide treatment and measured for telomerase activity. A telomerase activity quantification qPCT analysis kit (ScienCell, Carlsbad, CA, USA) was used.

Another data set concerns serum testosterone. The experiment in a line: Serum testosterone level and seminal vesicle weight after repeated injection (FIG. 15). It counts as in vivo, mouse. The settings on record: male BALB/c mice. The procedure: 6-week-old male BALB/c mice (Jung Ang Lab Animal Inc., Seoul, South Korea) were subcutaneously injected with vehicle or 1 mg/kg/day HS1002 for 10 days. Blood samples were collected 5 h after initial injection and 5 h after last injection. The serum concentration of testosterone was determined using a testosterone ELISA kit (ALPCO Diagnostics, Salem, NH, USA).
GnRH agonists stimulate the release of LH and FSH by binding to GnRHR located on the pituitary gonadotropes and consequently stimulate the secretion of steroid hormone from the gonads. However, continuous exposure to the GnRH agonist results in the downregulation of desensitization of GnRHR and eventually decreases production of testosterone. The inhibitory effect on the pituitary gonadal axis has a role in the anti-prostate cancer effects of GnRH analogs. Based on the HS1002 peptide design strategy, to validate whether HS1002 functions as a GnRHR ligand, the serum testosterone level in male mice was tested after repeated subcutaneous injections of HS1002.

A further data set deals with LNCaP tumors. The experiment in a line: LNCaP xenograft model, tumor volume, tumor weight and body weight (FIG. 17). It counts as in vivo. The settings on record: LNCaP xenograft BALB/c nude mice, 1 mg/kg/day s.c., 13 days. The procedure:
All mice were purchased from Central Lab Animal Inc. ([…]). They were raised in a 12 h environmental light/dark cycle with controlled temperature (22±2° C.) conditions. The experimental protocol was approved by the Sungkyunkwan University Institutional Animal Care and Use Committee (SKKUIACUC2021-06-27-1, SKKUIACUC2023-01-07-1). For the establishment of tumors, LNCaP (1×10^7), MC38 (2×10^5), and 4T1 (1×10^6) suspended in serum-free media containing 50% Matrigel was subcutaneously administered in the right flank of mice, respectively. The tumor volumes (V) were calculated using a caliper and the standard equation: V (mm^3)=0.52 (ab^2) (a=length, b=width). Once the tumor reached 100-200 mm^3, the mice were randomly divided into different groups and subcutaneously injected with a vehicle or each peptide every day.
To investigate the anticancer effect of HS1002, the present inventors observed the volume of cancer cells after transplanting the cancer cells into experimental animals. Specifically, mice (4-week-old male BALB/c nude mice; Central Lab. Animal Inc., Seoul, Korea) were prepared, and tumor cells (1×10^7 LNCaP cells) suspended in 1 mL of a serum-free medium containing 50% Matrigel were percutaneously injected into the upper flank of each nude mouse. When the tumor cell volume reached about 200 mm^3, the mice were randomly assigned to a vehicle control group, a leuprolide acetate-treated group, and test groups (GV1001-treated group and HS1002-treated group), respectively. Leuprolide acetate (0.1 mg/kg/day) and GV1001 and HS1002 (1 mg/kg/day) were injected subcutaneously for 13 days.

In the case of `CCNC(=O)[C@@H]1CCCN1C(=O)[C@@H](NC(=O)[C@H](Cc1ccccc1)NC(=O)[C@H](CCCNC(=N)N)NC(=O)[C@H](CC(C)C)NC(=O)[C@H](CCCNC(=N)N)NC(=O)[C@H](Cc1ccc(O)cc1)NC(=O)[C@H](CO)NC(=O)[C@H](Cc1c[nH]c2ccccc12)NC(=O)[C@H](Cc1c[nH]cn1)NC(=O)[C@@H]1CCC(=O)N1)[C@@H](C)CC` [HS1002], the “cytotoxicity to prostate cancer cells” value in data set [1] is “cytotoxicity to prostate cancer cells was highest”. Further, in data set [2], the “expression level of BAX” value was “increased”, the “expression level of Bcl-2” value is “decreased” and the “expression level of C-PARP” value is “increased”. For the same compound, the “telomerase activity compared with GV1001” value with telomerase is “better telomerase activity than GV1001”. Further, the “serum testosterone level increase compared to the vehicle-injected group” value with serum testosterone (1 mg/kg s.c., 5 h after the 1st injection) stood at 2.37 fold. Moreover, the seminal vesicle weights result with serum testosterone (1 mg/kg/day s.c., 10 days, vs vehicle) is listed as “significantly reduced”. The serum testosterone level entry with serum testosterone (1 mg/kg/day s.c., at 10 days after repeated injection, vs vehicle) is reported as “significantly lower”. In the data set on LNCaP tumors, the other toxicity entry is “no other toxicity”, the “reduction of tumor volume” value was “about 50%” and the “reduction of tumor weight” value is on record as “about 50%”.

Values taken from US20240247031A1, “COMPOSITION FOR TREATING CANCER CONTAINING TELOMERASE-TARGETING GNRH ANTAGONIST-DERIVED PEPTIDE HS1002” (Research & Business Foundation Sungkyunkwan University, priority 2023, published 2024).
